Data: patent US20140162942A1, “INHIBITION OF CYP3A DRUG METABOLISM” (priority 2010, published 2014)

Key:
[1] = tested on: CYP3A4/5; test: Clinical study: effect of boceprevir on the pharmacokinetic profile of midazolam in healthy adult subjects; details: for AUC(0-t) / Cmax / Tmax: both, human, in vivo, 4 mg; for Tmax: MDZ Tmax
Procedure: A clinical study was conducted to determine the effects of boceprevir on the pharmacokinetic (PK) profile of midazolam (MDZ) to assess the ability of boceprevir to inhibit CYP3A4/5 in vivo by monitoring its effect on the metabolism of MDZ, a sensitive CYP3A4/5 substrate.
This study was conducted in healthy adult subjects (seven male and five female subjects), at a single center, in conformance with Good Clinical Practices. The study used a fixed-sequence design ([…]). The PK profile of MDZ and its metabolite (1-hydroxy midazolam [1-0H-MDZ)) was determined when MDZ was administered alone and compared with the PK profile after co-administration of boceprevir as well as following a washout period of 7 days after boceprevir administration.
Boceprevir (BOC) 800 mg was administered as 4×200 mg capsules. MDZ 4 mg was administered as a single dose of an oral solution.
Day 1: MDZ 4 mg (oral solution, single dose)
Days 1 to 5: Boceprevir 800 mg (4×200 mg capsules) TID
Day 6: MDZ 4 mg (oral solution, single dose) and boceprevir 800 mg (4×200 mg capsules) TID Days 8 and 13: MDZ 4 mg (oral solution, single dose)
Blood samples for PK analyses were collected: for MDZ and 1-0H-MDZ: Days −1, 6, 8, and 13: predose (Ohr) and at 0.5, 1, 2, 3, 4, 8, 12, and 24 hours postdose for boceprevir: predose (Ohr) on Day 4 and Day 5 and on Day 6: predose (Ohr), and at 0.5, 1, 2, 3, 4, 6, and 8 hr postdose. The 8 hour sample was to be collected prior to the administration of the next dose of Boceprevir.

[2] = target: HCV NS3 serine protease (Hepatitis C virus genotype 1a, UniProt P27958); details: as described in WO2005/015579; cited from earlier work
Chain of HCV NS3 serine protease (P27958 1658-1711): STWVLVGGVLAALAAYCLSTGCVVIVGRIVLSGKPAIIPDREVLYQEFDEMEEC
Chain of HCV NS3 serine protease (P27958 1027-1657): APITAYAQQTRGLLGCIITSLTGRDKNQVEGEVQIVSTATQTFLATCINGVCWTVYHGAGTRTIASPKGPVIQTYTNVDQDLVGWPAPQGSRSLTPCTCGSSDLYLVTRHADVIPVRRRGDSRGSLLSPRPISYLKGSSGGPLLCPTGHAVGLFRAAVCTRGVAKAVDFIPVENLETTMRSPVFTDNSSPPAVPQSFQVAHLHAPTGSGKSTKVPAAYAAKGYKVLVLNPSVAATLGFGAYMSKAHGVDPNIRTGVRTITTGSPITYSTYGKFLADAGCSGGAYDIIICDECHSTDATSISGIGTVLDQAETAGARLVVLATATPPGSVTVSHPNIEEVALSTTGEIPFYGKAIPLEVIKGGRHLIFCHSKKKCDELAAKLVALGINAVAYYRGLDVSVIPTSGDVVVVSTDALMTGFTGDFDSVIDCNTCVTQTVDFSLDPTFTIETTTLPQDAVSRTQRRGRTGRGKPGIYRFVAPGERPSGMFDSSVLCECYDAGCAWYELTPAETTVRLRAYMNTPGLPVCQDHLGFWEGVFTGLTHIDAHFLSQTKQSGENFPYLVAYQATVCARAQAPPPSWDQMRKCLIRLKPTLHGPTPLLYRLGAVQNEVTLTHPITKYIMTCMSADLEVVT

Cc1ncc2n1-c1ccc(Cl)cc1C(c1ccccc1F)=NC2 [MDZ, midazolam]
Plasma concentrations of MDZ, return to baseline after boceprevir ([1]; 48 hours post last administration of boceprevir): returned to baseline values by Day 8
AUC(0-t) ([1]; MDZ AUC (0-24 hr) LS Mean, MDZ Alone (Day 8)): 56.1 ng·h/mL
AUC(0-t) ([1]; MDZ AUC (0-24 hr) LS Mean, MDZ Alone (Day 13)): 43.8 ng·h/mL
AUC(0-t) ([1]; MDZ AUC (0-24 hr) LS Mean, MDZ Alone (Day-1)): 52.9 ng·h/mL
AUC(0-t) ([1]; MDZ AUC(0-24 hr), MDZ Alone (Day 8), after boceprevir): 59.2 ng·h/mL
AUC(0-t) ([1]; MDZ AUC(0-24 hr), MDZ Alone (Day 13), after boceprevir): 45.4 ng·h/mL
Cmax ([1]; MDZ Cmax LS Mean, MDZ Alone (Day 8)): 9.82 ng/mL
Cmax ([1]; MDZ Cmax LS Mean, MDZ Alone (Day 13)): 8.94 ng/mL
Cmax ([1]; MDZ Cmax LS Mean, MDZ Alone (Day-1)): 9.96 ng/mL
Cmax ([1]; MDZ Cmax, MDZ Alone (Day 8), after boceprevir): 10.3 ng/mL
Cmax ([1]; MDZ Cmax, MDZ Alone (Day 13), after boceprevir): 9.15 ng/mL
Tmax ([1]; MDZ Alone (Day 8), after boceprevir): 2 h
Tmax ([1]; MDZ Alone (Day 13), after boceprevir): 1 h
AUC(0-t) ([1]; po, MDZ AUC(0-24 hr), MDZ Alone (Day-1), MDZ 4 mg oral, n = 12): 56.4 ng·h/mL
Cmax ([1]; po, MDZ Cmax, MDZ Alone (Day-1), MDZ 4 mg oral, n = 12): 10.3 ng/mL
Tmax ([1]; po, MDZ Alone (Day-1), MDZ 4 mg oral, n = 12): 2 h

CC(C)(C)NC(=O)N[C@H](C(=O)N1C[C@H]2[C@@H]([C@H]1C(=O)N[C@@H](CC1CCC1)C(=O)C(N)=O)C2(C)C)C(C)(C)C [Formula 1b, (1R,2S,5S)—N-[(1S)-3-amino-1-(cyclobutylmethyl)-2,3-dioxopropyl]-3-[(2S)-2[[[(1,1-dimethylethyl)amino]carbonyl]amino]-3,3-dimethyl-1-oxobutyl]-6,6-dimethyl-3-azabicyclo[3.1.0]hexane-2-carboxamide]
in vitro HCV NS3 serine protease inhibitory activity compared with the compound of Formula 1c [2]: significantly higher
